# Calls of active or inactive are those of the source. The calls are words filed in the database; no cut-off is given here.
# Columns and labels:
# [1] = target: RPS6KA1/RPS6KA2/RPS6KA3 (Homo sapiens) (UniProt P51812+Q15349+Q15418); assay: Inhibition of RSK1/2/3 Domain 1 K2 labeling site harbouring DLKPENILLDEEGHIKLTDFGLSK in human Huh-7 cells at 10 uM by KiNativ Profiling analysis relative to control; format: cell-based
# [2] = Inhibition of NEK6/7 K2 labeling site harbouring DIKPANVFITATGVVK in human Huh-7 cells at 1 uM by KiNativ Profiling analysis relative to control; settings: condition cancer
# [3] = target: T1, Inhibitor of nuclear factor kappa-B kinase subunit epsilon (Homo sapiens) (UniProt Q14164); assay: Inhibition of IKKe K2 labeling site in human Huh-7 cells at 10 uM by KiNativ Profiling analysis relative to control; format: cell-based
# T1 sequence (whole entry): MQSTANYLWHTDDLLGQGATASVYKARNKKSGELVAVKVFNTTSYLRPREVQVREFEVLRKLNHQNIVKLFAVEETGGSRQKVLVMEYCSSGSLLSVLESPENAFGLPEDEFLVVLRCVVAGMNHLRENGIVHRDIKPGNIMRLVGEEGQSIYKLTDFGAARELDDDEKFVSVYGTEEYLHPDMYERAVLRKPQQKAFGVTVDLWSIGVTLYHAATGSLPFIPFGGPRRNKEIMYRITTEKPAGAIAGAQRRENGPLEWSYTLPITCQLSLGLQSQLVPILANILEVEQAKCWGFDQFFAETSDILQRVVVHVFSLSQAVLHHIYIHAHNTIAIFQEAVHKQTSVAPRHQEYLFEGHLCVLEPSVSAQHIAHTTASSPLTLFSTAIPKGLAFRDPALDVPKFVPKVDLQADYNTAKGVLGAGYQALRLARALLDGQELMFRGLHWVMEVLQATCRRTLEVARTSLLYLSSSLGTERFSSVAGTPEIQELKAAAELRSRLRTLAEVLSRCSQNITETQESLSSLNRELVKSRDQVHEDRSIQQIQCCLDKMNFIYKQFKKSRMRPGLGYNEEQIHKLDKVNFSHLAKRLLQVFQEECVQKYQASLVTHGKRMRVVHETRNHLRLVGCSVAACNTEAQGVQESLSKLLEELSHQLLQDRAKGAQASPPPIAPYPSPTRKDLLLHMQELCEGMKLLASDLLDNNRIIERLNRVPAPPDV
# [4] = target: Myosin-IIIa (Homo sapiens) (UniProt Q8NEV4); assay: Inhibition of MYO3A (unknown origin) at 10 uM by Ambit Kinomescan binding assay relative to control
# [5] = target: Activated CDC42 kinase 1 (Homo sapiens) (UniProt Q07912); assay: Inhibition of ACK Lys1 labeling site in human A-375 cells at 5 uM by KiNativ Profiling analysis relative to control; format: cell-based
# [6] = target: Glycogen synthase kinase-3 beta (Homo sapiens) (UniProt P49841); assay: Inhibition of GSK3B K2 labeling site in human Huh-7 cells at 1 uM by KiNativ Profiling analysis relative to control; format: cell-based
# [7] = target: Phosphatidylinositol 4-phosphate 3-kinase C2 domain-containing subunit beta (Homo sapiens) (UniProt O00750); assay: Inhibition of PIK3C2B (unknown origin) at 10 uM by Ambit Kinomescan binding assay
# [8] = target: PKC alpha and beta-2 (Homo sapiens) (UniProt P17252+P05771); assay: Inhibition of PKCalpha/beta K2 labeling site in human Huh-7 cells at 10 uM by KiNativ Profiling analysis relative to control; format: cell-based
# [9] = target: Serine/threonine-protein kinase 32A (Homo sapiens) (UniProt Q8WU08); assay: Inhibition of YANK1 (unknown origin) at 1 uM by Ambit Kinomescan binding assay relative to control; values are per cent of control
# [10] = target: Muscle, skeletal receptor tyrosine-protein kinase (Homo sapiens) (UniProt O15146); assay: Inhibition of MUSK (unknown origin) at 1 uM by Ambit Kinomescan binding assay relative to control; values are per cent of control
# [11] = target: Serine/threonine-protein kinase SIK3 (Homo sapiens) (UniProt Q9Y2K2); assay: Inhibition of QSK Lys2 labeling site in human A-375 cells at 0.05 uM by KiNativ Profiling analysis relative to control; format: cell-based
# [12] = target: Tyrosine-protein kinase receptor TYRO3 (Homo sapiens) (UniProt Q06418); assay: Inhibition of TYRO3 (unknown origin) at 1 uM by Ambit Kinomescan binding assay relative to control
# [13] = target: Tyrosine-protein kinase CSK (Homo sapiens, UniProt P41240); assay: Inhibition of CSK (unknown origin) at 1 uM by Ambit Kinomescan binding assay relative to control
# [14] = test system: Proto-oncogene tyrosine-protein kinase receptor Ret (Homo sapiens), P07949 [V804L]; assay: Inhibition of RET V804L mutant (unknown origin) at 1 uM by Ambit Kinomescan binding assay relative to control; values are per cent of control
# [15] = target: TRAF2 and NCK-interacting protein kinase (Homo sapiens) (UniProt Q9UKE5); assay: Inhibition of ZC2/TNIK Lys1 labeling site in human Huh-7 cell lysate at 1 uM by KiNativ Profiling analysis relative to control; format: subcellular
# [16] = target: Protein kinase C beta type (Homo sapiens) (UniProt P05771); assay: Inhibition of PKCb Lys2 labeling site in human Huh-7 cell lysate at 1 uM by KiNativ Profiling analysis relative to control; format: subcellular
# [17] = target: Serine/threonine-protein kinase B-raf (Homo sapiens, UniProt P15056); assay: Inhibition of BRAF Lys2 labeling site in human Huh-7 cell lysate at 1 uM by KiNativ Profiling analysis relative to control; format: subcellular
# [18] = target: Dual specificity mitogen-activated protein kinase kinase 1 (Homo sapiens) (UniProt Q02750); assay: Inhibition of MAP2K1 Lys2 labeling site harbouring IMHRDVKPSNILVNSR in human Huh-7 cell lysate at 1 uM by KiNativ Profiling analysis relative to control; format: subcellular
# [19] = target: T2, Serine/threonine-protein kinase Chk1 (Homo sapiens) (UniProt O14757); assay: Inhibition of CHK1 Lys2 labeling site in human Huh-7 cells at 1 uM by KiNativ Profiling analysis relative to control; format: cell-based
# T2 sequence (whole entry): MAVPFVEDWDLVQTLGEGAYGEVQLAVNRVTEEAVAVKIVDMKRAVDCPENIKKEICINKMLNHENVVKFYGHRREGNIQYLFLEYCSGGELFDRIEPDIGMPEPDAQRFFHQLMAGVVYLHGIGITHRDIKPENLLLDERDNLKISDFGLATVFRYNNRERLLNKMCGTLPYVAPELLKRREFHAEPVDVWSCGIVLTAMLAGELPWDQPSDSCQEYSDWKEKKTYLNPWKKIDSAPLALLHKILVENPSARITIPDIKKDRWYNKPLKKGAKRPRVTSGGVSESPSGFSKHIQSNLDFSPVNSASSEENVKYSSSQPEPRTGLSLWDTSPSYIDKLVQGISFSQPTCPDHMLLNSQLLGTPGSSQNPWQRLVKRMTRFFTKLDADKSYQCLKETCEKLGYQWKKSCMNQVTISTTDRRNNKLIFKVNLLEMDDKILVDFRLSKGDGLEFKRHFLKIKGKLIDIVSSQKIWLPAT
# Sequence of Dual specificity mitogen-activated protein kinase kinase 1 (Homo sapiens) (Q02750 whole entry): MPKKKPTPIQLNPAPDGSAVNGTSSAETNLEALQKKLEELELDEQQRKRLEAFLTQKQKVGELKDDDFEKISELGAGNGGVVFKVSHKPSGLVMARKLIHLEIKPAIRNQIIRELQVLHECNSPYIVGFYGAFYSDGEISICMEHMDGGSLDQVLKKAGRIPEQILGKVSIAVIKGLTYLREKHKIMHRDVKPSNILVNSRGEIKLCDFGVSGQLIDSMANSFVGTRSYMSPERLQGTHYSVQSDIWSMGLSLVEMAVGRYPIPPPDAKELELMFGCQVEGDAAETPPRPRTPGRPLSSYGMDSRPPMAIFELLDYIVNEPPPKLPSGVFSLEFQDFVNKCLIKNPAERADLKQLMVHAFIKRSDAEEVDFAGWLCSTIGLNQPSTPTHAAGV
# Sequence of Muscle, skeletal receptor tyrosine-protein kinase (Homo sapiens) (O15146 whole entry): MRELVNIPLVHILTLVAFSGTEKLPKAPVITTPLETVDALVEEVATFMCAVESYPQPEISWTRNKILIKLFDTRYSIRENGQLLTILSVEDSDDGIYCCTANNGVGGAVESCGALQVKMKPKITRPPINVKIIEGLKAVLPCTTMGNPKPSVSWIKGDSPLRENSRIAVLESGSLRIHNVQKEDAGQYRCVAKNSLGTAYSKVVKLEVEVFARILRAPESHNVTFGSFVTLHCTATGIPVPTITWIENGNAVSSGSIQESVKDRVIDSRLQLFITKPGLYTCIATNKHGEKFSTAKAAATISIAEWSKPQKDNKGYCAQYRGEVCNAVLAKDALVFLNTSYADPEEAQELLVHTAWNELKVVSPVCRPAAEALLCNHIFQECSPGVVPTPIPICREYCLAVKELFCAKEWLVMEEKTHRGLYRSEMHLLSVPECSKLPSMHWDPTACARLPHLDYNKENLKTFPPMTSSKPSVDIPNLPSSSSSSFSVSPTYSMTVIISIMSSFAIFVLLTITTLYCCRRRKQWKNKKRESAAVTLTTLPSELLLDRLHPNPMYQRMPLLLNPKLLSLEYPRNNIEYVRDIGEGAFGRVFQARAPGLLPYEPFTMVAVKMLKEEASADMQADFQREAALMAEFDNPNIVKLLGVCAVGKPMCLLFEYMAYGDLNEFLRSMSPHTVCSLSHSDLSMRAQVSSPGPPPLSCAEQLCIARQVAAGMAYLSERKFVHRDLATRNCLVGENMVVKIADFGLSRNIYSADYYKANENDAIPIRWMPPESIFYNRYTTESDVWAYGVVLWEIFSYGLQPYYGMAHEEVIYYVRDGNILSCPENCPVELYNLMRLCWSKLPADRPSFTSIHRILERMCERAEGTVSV
# Sequence of PKC alpha and beta-2 (Homo sapiens) (P05771 whole entry, looked up): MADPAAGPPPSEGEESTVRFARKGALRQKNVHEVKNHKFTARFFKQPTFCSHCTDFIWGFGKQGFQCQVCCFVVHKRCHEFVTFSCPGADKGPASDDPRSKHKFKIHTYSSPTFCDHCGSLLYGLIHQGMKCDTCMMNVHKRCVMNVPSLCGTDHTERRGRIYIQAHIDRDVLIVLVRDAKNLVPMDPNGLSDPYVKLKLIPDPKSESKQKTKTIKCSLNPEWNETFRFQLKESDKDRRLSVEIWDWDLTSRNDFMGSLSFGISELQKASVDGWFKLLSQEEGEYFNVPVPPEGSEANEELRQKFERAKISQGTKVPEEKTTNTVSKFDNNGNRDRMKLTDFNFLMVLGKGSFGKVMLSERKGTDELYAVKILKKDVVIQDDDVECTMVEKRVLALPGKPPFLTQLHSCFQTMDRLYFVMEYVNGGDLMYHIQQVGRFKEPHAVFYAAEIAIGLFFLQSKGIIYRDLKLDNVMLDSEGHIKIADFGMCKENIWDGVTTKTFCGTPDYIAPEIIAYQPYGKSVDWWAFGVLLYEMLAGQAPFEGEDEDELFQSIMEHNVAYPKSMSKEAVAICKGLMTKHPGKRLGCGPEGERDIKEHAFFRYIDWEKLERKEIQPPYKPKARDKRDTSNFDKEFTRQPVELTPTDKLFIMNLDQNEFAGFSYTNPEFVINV
# Sequence of Serine/threonine-protein kinase SIK3 (Homo sapiens) (Q9Y2K2 whole entry, looked up): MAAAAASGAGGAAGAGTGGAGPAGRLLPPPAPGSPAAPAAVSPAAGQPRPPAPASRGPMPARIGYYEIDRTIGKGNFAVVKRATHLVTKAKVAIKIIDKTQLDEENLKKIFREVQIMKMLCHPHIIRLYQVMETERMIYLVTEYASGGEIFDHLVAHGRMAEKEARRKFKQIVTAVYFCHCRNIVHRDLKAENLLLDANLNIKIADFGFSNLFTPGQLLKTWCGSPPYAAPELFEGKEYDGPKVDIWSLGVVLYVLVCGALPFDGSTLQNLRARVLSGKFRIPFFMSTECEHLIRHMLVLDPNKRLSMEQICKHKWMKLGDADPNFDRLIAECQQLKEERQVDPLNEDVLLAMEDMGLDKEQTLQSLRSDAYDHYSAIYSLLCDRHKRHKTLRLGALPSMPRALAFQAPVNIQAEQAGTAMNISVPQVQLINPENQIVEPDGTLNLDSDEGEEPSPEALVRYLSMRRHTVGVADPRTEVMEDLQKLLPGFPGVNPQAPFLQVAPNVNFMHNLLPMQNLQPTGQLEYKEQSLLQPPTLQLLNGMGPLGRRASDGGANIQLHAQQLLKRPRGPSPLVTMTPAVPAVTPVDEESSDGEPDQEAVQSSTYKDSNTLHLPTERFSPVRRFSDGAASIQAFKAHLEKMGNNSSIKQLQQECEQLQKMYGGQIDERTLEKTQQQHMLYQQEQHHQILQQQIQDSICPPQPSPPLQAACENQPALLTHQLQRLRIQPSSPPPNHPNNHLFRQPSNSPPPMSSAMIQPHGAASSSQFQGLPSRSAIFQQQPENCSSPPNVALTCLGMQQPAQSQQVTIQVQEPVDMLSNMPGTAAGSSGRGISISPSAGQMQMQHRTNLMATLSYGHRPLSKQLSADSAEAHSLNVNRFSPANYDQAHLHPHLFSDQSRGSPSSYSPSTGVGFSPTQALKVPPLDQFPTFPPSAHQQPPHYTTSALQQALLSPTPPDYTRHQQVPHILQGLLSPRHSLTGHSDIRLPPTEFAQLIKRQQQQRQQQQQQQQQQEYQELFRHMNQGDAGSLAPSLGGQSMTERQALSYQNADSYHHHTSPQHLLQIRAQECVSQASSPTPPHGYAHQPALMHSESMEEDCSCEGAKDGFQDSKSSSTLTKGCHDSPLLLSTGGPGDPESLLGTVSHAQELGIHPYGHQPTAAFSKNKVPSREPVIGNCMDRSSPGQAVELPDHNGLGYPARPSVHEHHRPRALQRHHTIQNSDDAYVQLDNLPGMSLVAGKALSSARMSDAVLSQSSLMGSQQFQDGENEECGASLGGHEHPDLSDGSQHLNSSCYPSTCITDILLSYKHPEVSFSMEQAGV
# Sequence of Activated CDC42 kinase 1 (Homo sapiens) (Q07912 whole entry, looked up): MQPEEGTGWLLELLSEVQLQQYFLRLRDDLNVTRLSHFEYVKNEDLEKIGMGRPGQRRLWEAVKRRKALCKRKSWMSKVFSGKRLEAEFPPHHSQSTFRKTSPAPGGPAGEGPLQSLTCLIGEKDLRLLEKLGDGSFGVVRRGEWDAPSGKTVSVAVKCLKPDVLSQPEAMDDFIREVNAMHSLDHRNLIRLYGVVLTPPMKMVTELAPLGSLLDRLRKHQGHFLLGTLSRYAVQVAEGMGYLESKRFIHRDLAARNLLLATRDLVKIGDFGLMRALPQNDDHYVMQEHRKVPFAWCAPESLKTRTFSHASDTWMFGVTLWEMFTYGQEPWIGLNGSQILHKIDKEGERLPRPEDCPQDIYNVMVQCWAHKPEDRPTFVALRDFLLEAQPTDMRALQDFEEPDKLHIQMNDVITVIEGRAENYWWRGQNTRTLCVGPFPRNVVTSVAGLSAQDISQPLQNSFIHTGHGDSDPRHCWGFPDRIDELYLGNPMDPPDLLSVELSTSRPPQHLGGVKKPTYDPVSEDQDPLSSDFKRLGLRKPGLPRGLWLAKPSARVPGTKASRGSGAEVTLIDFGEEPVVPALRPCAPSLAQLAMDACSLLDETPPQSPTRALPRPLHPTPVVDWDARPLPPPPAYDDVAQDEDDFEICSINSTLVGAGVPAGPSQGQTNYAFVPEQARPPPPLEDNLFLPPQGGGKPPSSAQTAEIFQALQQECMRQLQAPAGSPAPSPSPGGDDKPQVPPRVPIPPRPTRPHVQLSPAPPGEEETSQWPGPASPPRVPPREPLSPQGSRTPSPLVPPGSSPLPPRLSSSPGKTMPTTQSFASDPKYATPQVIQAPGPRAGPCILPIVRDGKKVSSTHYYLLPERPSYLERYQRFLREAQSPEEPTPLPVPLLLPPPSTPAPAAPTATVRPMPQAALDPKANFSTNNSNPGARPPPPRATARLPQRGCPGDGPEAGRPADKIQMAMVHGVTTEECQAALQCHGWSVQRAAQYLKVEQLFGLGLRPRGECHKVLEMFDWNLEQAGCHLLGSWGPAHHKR
smiles,measurement,setting,value
CCN1CCN(Cc2ccc(NC(=O)c3ccc(C)c(Oc4ccnc5[nH]ccc45)c3)cc2C(F)(F)F)CC1,inhibition,[1],-6.5%
same,inhibition at 1 µM,[2],-13.1%
same,inhibition,[3],8.4%
same,inhibition,[4],6.4%
same,inhibition,[5],6.1%
same,inhibition,[6],2.9%
same,inhibition,[7],inactive
same,inhibition,[8],1.3%
CCN1CCN(Cc2ccc(NC(=O)c3ccc(C)c(/C=C/c4cnc5[nH]ccc5c4OC)c3)cc2C(F)(F)F)CC1,percent of control,[9],100%
same,residual activity,[10],2%
same,inhibition,[11],29.6%
same,inhibition,[12],76%
same,inhibition,[13],2%
same,percent of control,[14],3.4%
CNc1cc(Oc2cc(C(=O)Nc3cc(N4CCN(C)CC4)cc(C(F)(F)F)c3)ccc2C)ncn1,inhibition,[15],11.9%
same,inhibition,[16],-1.2%
same,inhibition,[17],-1.4%
same,inhibition,[18],23.6%
same,inhibition,[19],22.5%

# From ChEMBL document CHEMBL5696442, “Discovery of type II inhibitors of TGFβ-activated kinase 1 (TAK1) and mitogen-activated protein kinase kinase kinase kinase 2 (MAP4K2)” (J Med Chem, 2015)
